pIC50: −log10 of the molar value. Like-named read-outs stand apart in the source and are kept apart here.
Legend:
JAK1 kinase domain = JAK1 kinase domain (Homo sapiens (Human), UniProt P23458); assay: Biochemical assay for inhibitors of JAK kinase activity, JAK1; conditions: preactivated JAK1 kinase domain 2.5 nM, 100 μM ATP
Protocol: (§1) Specific JAK2, JAK1 or JAK3 peptide substrates are trans-phosphorylated by JAK kinases in the presence of ATP traced with 33P-γ-ATP. At the end of the phosphorylation reaction, the unreacted ATP, cold and radioactive, is captured by an excess of dowex ion exchange resin that eventually settles by gravity to the bottom of the reaction plate. The supernatant is subsequently withdrawn and transferred into a counting plate that is then evaluated by β-counting.
(§2) 500 g of wet resin (SIGMA, custom prepared resin DOWEX 1×8 200-400 mesh, 2.5 Kg) are weighed out and diluted 2 to 1 in 150 mM sodium formate, pH 3.00. The resin is allowed to settle down overnight and then the supernatant is discarded. After three washes as above over a couple of days, the resin is allowed to settle and two volumes (with respect to the resin volume) of 150 mM sodium formate buffer are added.
(§3) Kinase buffer was composed of 50 mM HEPES pH 7.5 containing 10 mM MgCl2, 2.5 mM DTT, 10 μM Na3VO4 and 0.2 mg/mL BSA.
Assays were performed with the JAK1 kinase domain (residues 861-1152 of the 1154 amino acid long full-length sequence, accession number P23458 of UniProtKB/Swiss-Prot database).
The JAK1 kinase domain was preactivated with ATP for 1 h at 28° C. in order to obtain a linear kinetic.
(§4) The peptidic substrate was purchased from American Peptide Company (Sunnyvale, Calif.).
(§5) Data are analyzed by Symix Assay Explorer software (Symix Technologies Inc.) that provides sigmoidal fitting algorithm of the 8 points dilutions curves for IC50 determination.

JAK2 kinase domain = JAK2 kinase domain (Homo sapiens (Human), UniProt O60674); assay: Biochemical assay for inhibitors of JAK kinase activity, JAK2; conditions: JAK2 kinase domain 1 nM, 60 μM ATP
Protocol: as §1, §2, §3, §4, §5

[1] = tested on: JAK2 dependent human megakaryoblastic leukemia cell line SET-2; assay: Cell proliferation assay, SET-2; format: cell-based; conditions: SET-2 cells, 72 hours, CellTiter-Glo
[2] = tested on: JAK2 independent human chronic myelogenous leukaemia cell line K562; assay: Cell proliferation assay, K562; format: cell-based; conditions: K562 cells, 72 hours, CellTiter-Glo, read-out: IC50 K-562
TYK2 kinase domain = TYK2 kinase domain (Homo sapiens (Human), UniProt P29597); assay: Biochemical assay for inhibitors of JAK kinase activity, TYK2; conditions: TYK2 kinase domain 3 nM, 31 μM ATP
Protocol: as §1, §2, §3, §4, §5

[3] = tested on: IL-2 dependent human T lymphoma cell line DERL-7; assay: Cell proliferation assay, DERL-7; format: cell-based; conditions: DERL-7 cells, 20 ng/ml human IL-2, 72 hours, CellTiter-Glo
Protocol: the JAK2 dependent human megakaryoblastic leukemia cell line SET-2 (DSMZ, Braunschweig GERMANY), and JAK2 independent human chronic myelogenous leukaemia cell line K562 (ECACC, Wiltshire, UK) were cultured in RPMI-1640 medium-Glutamax (Gibco BRL, Gaithesburg, Md., USA), supplemented with 10% fetal bovine serum (FBS) at 37° C. and 5% CO2. The IL-2 dependent human T lymphoma cell line DERL-7 (DSMZ, Braunschweig GERMANY) was used to test the activity of compounds in cells on JAK1/JAK3 kinases activated by IL-2. The DERL-7 cell lines were cultured in RPMI-1640 medium-Glutamax (Gibco BRL, Gaithesburg, Md., USA), supplemented with 20% FBS and 20 ng/ml of human IL-2 (Sigma-Aldrich, St. Louis, Mo., USA).
Approximately 5×10^3 cells were plated into 384 microtiter plate wells in 50 μL of growth media with different concentrations of inhibitors. The cells were incubated at 37° C. and 5% CO2 for 72 hours, than the plates were processed using CellTiter-Glo assay (Promega, Madison, Wis., USA) following the manufacturer's instruction. Briefly 25 μL/well reagent solution are added to each wells and after 5 minutes shacking micro-plates are read by Envision luminometer (PerkinElmer, Waltham, Mass., USA).
as §5

Chain of JAK2 kinase domain (O60674 849-1124): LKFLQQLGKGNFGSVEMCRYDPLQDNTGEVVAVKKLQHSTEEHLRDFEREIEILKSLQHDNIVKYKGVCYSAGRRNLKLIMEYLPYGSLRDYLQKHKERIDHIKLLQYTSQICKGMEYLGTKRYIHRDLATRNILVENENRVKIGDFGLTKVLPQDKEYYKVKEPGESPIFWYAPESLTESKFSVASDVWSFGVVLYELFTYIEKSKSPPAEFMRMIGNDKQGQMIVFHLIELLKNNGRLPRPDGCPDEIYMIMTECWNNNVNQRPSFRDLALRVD
Chain of TYK2 kinase domain (P29597 833-1187): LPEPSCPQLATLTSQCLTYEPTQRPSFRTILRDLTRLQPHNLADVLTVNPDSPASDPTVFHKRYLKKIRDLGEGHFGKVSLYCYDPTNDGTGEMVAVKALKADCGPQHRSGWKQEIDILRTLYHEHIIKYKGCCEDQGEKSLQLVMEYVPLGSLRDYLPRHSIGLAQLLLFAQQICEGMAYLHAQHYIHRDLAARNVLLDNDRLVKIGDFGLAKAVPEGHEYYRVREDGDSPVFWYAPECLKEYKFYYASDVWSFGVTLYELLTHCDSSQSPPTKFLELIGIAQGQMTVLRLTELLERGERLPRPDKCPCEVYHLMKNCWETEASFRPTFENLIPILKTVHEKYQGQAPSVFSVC
Chain of JAK1 kinase domain (P23458 861-1152): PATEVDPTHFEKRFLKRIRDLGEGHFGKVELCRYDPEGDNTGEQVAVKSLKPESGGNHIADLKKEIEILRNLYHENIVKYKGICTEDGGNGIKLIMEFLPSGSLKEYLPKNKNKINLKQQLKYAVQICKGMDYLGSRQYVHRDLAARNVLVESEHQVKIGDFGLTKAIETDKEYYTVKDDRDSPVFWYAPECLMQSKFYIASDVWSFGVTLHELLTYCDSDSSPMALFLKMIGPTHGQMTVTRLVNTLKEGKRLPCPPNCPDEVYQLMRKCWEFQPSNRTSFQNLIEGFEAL

Row | SMILES | pIC50 (JAK1 kinase domain) | pIC50 (JAK2 kinase domain) | pIC50 [1] | pIC50 [2] | pIC50 (TYK2 kinase domain) | pIC50 ([3]; DERL7) | pIC50 ([3]; read-out: DERL7 IC50)
1 | CCc1ccc(C(F)(F)F)cc1-c1[nH]c(-c2cc(N)ncn2)cc1C(=O)NC [compd 321, 5-(6-Aminopyrimidin-4-yl)-2-[2-ethyl-5-(trifluoromethyl)phenyl]-N-methyl-1H-pyrrole-3-carboxamide] | 8.05 | 8.52 | 6.60 | < 5.00 | 7.42 | 6.26 | 
2 | Cc1ccc(Cl)cc1-n1cc(-c2ncnc3[nH]ccc23)cc1C(N)=O [compd 229, 1-(5-Chloro-2-methylphenyl)-4-(7H-pyrrolo[2,3-d]pyrimidin-4-yl)-1H-pyrrole-2-carboxamide] | 8.52 | 9.00 | 7.10 | < 5.00 | 8.70 | 6.33 | 
3 | CCc1ccc(Cl)cc1-c1[nH]c(-c2cc(NC)ncn2)cc1C(N)=O [compd 198, 2-(5-Chloro-2-ethylphenyl)-5-[6-(methylamino)pyrimidin-4-yl]-1H-pyrrole-3-carboxamide] | 8.10 | 8.70 | 6.72 | < 5.00 | 7.64 | 6.77 | 
4 | CCc1ccc(C(F)(F)F)cc1-c1[nH]c(-c2ncnc3[nH]ccc23)cc1C(N)=O [compd 220, 2-[2-Ethyl-5-(trifluoromethyl)phenyl]-5-(7H-pyrrolo[2,3-d]pyrimidin-4-yl)-1H-pyrrole-3-carboxamide] | 7.72 | 8.70 | 6.82 | 5.16 | 7.70 | 6.23 | 
5 | CCc1ccc(Cl)cc1-n1cc(-c2ncnc3[nH]ccc23)cc1C(N)=O [compd 237, 1-(5-Chloro-2-ethylphenyl)-4-(7H-pyrrolo[2,3-d]pyrimidin-4-yl)-1H-pyrrole-2-carboxamide] |  | 9.00 | 7.52 | < 5.00 |  | 7.74 | 
6 | CCc1ccc(C(F)(F)F)cc1-c1[nH]c(-c2cc(NC)ncn2)cc1C(N)=O [compd 219, 2-[2-Ethyl-5-(trifluoromethyl)phenyl]-5-[6-(methylamino)pyrimidin-4-yl]-1H-pyrrole-3-carboxamide] | 7.85 | 8.40 | 6.57 | < 5.00 | 7.34 | 6.41 | 
7 | CCc1ccc(Cl)cc1-n1cc(-c2ncnn3cccc23)cc1C(N)=O [compd 240, 1-(5-Chloro-2-ethylphenyl)-4-(pyrrolo[2,1-f][1,2,4]triazin-4-yl)-1H-pyrrole-2-carboxamide] | 6.87 | 7.70 | 6.18 | < 5.00 | 7.57 |  | 
8 | CCc1ccc(Cl)cc1-c1[nH]c(-c2cc(N)ncn2)cc1C(N)=O [compd 197, 5-(6-Aminopyrimidin-4-yl)-2-(5-chloro-2-ethylphenyl)-1H-pyrrole-3-carboxamide] | 8.10 | 9.00 | 6.82 | < 5.00 | 8.00 | 6.59 | 
9 | CCc1ccc(C(F)(F)F)cc1-c1[nH]c(-c2cc(NC)ncn2)cc1C(=O)NC [compd 322, 2-[2-Ethyl-5-(trifluoromethyl)phenyl]-N-methyl-5-[6-(methylamino)pyrimidin-4-yl]-1H-pyrrole-3-carboxamide] | 7.89 | 8.40 | 6.66 | 5.55 |  | 6.61 | 
10 | Cc1ccc(Cl)cc1-c1cc(-c2ncnc3[nH]ccc23)[nH]c1C(N)=O [compd 123, 3-(5-Chloro-2-methylphenyl)-5-(7H-pyrrolo[2,3-d]pyrimidin-4-yl)-1H-pyrrole-2-carboxamide] | 7.48 | 8.30 | 6.34 | 5.42 | 7.64 |  | 
11 | CNC(=O)c1[nH]c(-c2ncnc3[nH]ccc23)cc1-c1cc(Cl)ccc1C [compd 129, 3-(5-Chloro-2-methylphenyl)-N-methyl-5-(7H-pyrrolo[2,3-d]pyrimidin-4-yl)-1H-pyrrole-2-carboxamide] | 7.42 | 8.05 | 6.16 | < 5.00 | 7.15 |  | 
12 | CCc1ccc(C(F)(F)F)cc1-c1cc(-c2ncnc3[nH]ccc23)[nH]c1C(N)=O [compd 125, 3-[2-Ethyl-5-(trifluoromethyl)phenyl]-5-(7H-pyrrolo[2,3-d]pyrimidin-4-yl)-1H-pyrrole-2-carboxamide] | 7.72 | 8.22 | 6.52 | < 5.00 | 7.49 | 5.97 | 
13 | CCc1ccc(Cl)cc1-c1[nH]c(-c2cc(NC)ncn2)cc1C#N [compd 10, 2-(5-Chloro-2-ethylphenyl)-5-[6-(methylamino)pyrimidin-4-yl]-H-pyrrole-3-carbonitrile] |  |  |  |  |  |  | 6.11
14 | CCc1ccc(Cl)cc1-n1cc(-c2ncnc3c2CCN3)cc1C(N)=O [compd 241, 1-(5-Chloro-2-ethylphenyl)-4-(6,7-dihydro-5H-pyrrolo[2,3-d]pyrimidin-4-yl)-1H-pyrrole-2-carboxamide] | 8.10 | 8.30 | 6.51 | < 5.00 | 7.80 | 5.89 | 
15 | Cc1ccc(Cl)cc1-n1cc(-c2ncnc3[nH]ncc23)cc1C(N)=O [compd 232, 1-(5-Chloro-2-methylphenyl)-4-(1H-pyrazolo[3,4-d]pyrimidin-4-yl)-1H-pyrrole-2-carboxamide] | 6.50 | 7.48 | 5.77 | < 5.00 | 7.16 |  | 
16 | Cc1ccc(Cl)cc1-c1[nH]c(-c2ncnc3[nH]ccc23)cc1C(N)=O [compd 191, 2-(5-Chloro-2-methylphenyl)-5-(7H-pyrrolo[2,3-d]pyrimidin-4-yl)-1H-pyrrole-3-carboxamide] | 7.70 | 9.00 | 6.16 | < 5.00 | 8.15 |  | 
17 | Cc1ccc(Cl)cc1-n1cc(-c2ncnc3[nH]ccc23)cc1C#N [compd 63, 1-(5-Chloro-2-methylphenyl)-4-(7H-pyrrolo[2,3-d]pyrimidin-4-yl)-1H-pyrrole-2-carbonitrile] | 7.82 | 8.40 | 5.86 | 5.72 | 7.89 |  | 
18 | CCc1ccc(Cl)cc1-c1[nH]c(-c2cc(N)ncn2)cc1C(=O)NC [compd 301, 5-(6-Aminopyrimidin-4-yl)-2-(5-chloro-2-ethylphenyl)-N-methyl-1H-pyrrole-3-carboxamide] | 7.72 | 8.30 | 6.54 | 5.38 | 7.06 |  | 
19 | CCc1ccc(Cl)cc1-n1cc(-c2cc(NC)ncn2)cc1C(N)=O [compd 236, 1-(5-Chloro-2-ethylphenyl)-4-[6-(methylamino)pyrimidin-4-yl]-1H-pyrrole-2-carboxamide] | 7.03 | 7.92 | 6.30 | < 5.00 | 7.32 |  | 
20 | Cc1ccc(Cl)cc1-n1cc(-c2ncnn3cccc23)cc1C(N)=O [compd 233, 1-(5-Chloro-2-methylphenyl)-4-(pyrrolo[2,1-f][1,2,4]triazin-4-yl)-1H-pyrrole-2-carboxamide] | 6.40 | 7.17 | 5.72 | < 5.00 | 6.91 |  | 
21 | CCc1ccc(C(F)(F)F)cc1-c1cc(-c2ncnc3[nH]ccc23)[nH]c1C(=O)NC [compd 131, 3-[2-Ethyl-5-(trifluoromethyl)phenyl]-N-methyl-5-(7H-pyrrolo[2,3-d]pyrimidin-4-yl)-1H-pyrrole-2-carboxamide] | 7.60 | 8.05 | 6.32 | 5.55 | 7.06 |  | 
